Results on four compounds are retold here after patent publication US20240239863A1, “GIP RECEPTOR AGONIST AND USE THEREOF” (HANGZHOU ZHONGMEIHUADONG PHARMACEUTICAL CO., LTD., priority 2022, published 2024).

Starred links: 1 amine or outer side, 2 acyl side, 3 side chain; linkers in the order of their positions; H or OH if unused. Non-standard residues stand in square brackets, D forms with d. Residues, ends and D or L forms follow the SMILES beside them. Groups on a side chain read outwards from the residue. *: point of attachment. d(γGlu) = O=C(O)[C@@H](CCC(=O)[*:2])N[*:1]; C18 diacid = O=C(O)CCCCCCCCCCCCCCCCC(=O)*; AEEA = NCCOCCOCC(=O)O; Aib = CC(C)(N)C(=O)O

The target in data set [1] is T1, hGIPR (Homo sapiens, UniProt P48546).
T1 construct: expressed in transfected cells; host or cells: HEK293, stably transduced
T1 sequence (P48546 22-466): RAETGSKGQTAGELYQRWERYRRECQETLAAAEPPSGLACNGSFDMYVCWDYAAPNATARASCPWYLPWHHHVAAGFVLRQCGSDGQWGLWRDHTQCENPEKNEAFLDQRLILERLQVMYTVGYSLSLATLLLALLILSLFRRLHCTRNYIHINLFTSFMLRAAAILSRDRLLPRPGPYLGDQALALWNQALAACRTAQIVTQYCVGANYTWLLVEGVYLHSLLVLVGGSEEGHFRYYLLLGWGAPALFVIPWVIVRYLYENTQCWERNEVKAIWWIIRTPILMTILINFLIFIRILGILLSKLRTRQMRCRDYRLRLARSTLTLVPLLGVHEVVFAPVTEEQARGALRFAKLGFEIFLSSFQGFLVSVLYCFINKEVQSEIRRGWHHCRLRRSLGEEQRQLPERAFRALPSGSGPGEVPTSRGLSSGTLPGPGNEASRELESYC
As to the kind of experiment: HTRF cAMP cell agonistic activity assay, HEK293 stably expressing GIPR (Example 7). Format: cell-based. The method, then: The agonistic activity of the compounds on the receptor was determined using the HTRF kit (purchased from Perkin Elmer). All reagents in the kit were allowed to equilibrate to room temperature before use. A 1× Stimulation Buffer was formulated according to the instruction in the kit for use. […] GIPR cells were digested with trypsin, centrifuged to remove the culture medium. The cells were resuspended in the 1× Stimulation Buffer. After being counted, 9 μL cell dilutions were inoculated into a 384-well plate at 1000 cells/well. 1 μL the 10× compound diluted in step 2 was taken and added to the corresponding test well, wherein 1 μL the 10× initial concentration positive compound was added to the PC hole (Min value), and 1 μL the 10×DMSO buffer (1%) was added to the VC hole (Max value). The plate was centrifuged and incubated at 37 °C for 30 minutes. Eu-cAMP was diluted with Detection buffer to a working concentration, and the diluent was added into the corresponding test well at 5 μL/well. ULight-anti-Camp was diluted with Detection buffer to a working concentration, and the diluent was added into the corresponding test well at 5 μL/well. After being centrifuged, the plate was incubated at room temperature for 1 hour. […] The nonlinear regression method of GraphPad Prism software was used for curve fitting and EC50 calculation.
For orientation: Time-resolved FRET reads energy transfer from a long-lived donor to a nearby acceptor.

Data set [2] addresses hGLP-1R (Homo sapiens, UniProt P43220). Put plainly: Cell agonistic activity at GLP-1 receptor (Example 7). It counts as cell-based. The settings on record: read-out: hGLP-1R EC50.
On the set-up of data set [3]: species or system DIO mice. To be noted: mouse, in vivo. The source says: (§1) […] high-fat diet-induced obese (DIO) mice were weighed. When the average weight of the mice is about 40-45 g, they are randomly assigned to Groups G2-G11 based on the body weight of the mice, with 8 mice in each group. Eight C57BL/6 mice fed with normal diet were assigned to Group G1. Each mouse in all groups was housed in a separate cage for 2-3 days to adapt to environment before grouping. During this period, the mice were adaptively caught and administrated with blank solvent daily. The day of grouping was Day 0. The Vehicle group was administrated with blank solvent (propylene glycol: 14.0 mg/mL and disodium hydrogen phosphate: 1.132 mg/mL) at pH 7.4; s.c. means subcutaneous injection; the frequency of administration QD means once a day. Such expressions may be applied to the following Examples.
Based on the assay in Example 11, the cumulative water intake of the mice was also statistically calculated and compared with the water intake of the mice in the Tirzepatide treatment group.

Data set [4] is described as follows: Fasting blood glucose in STZ type 2 diabetic mice after 7 days (Example 9). Format: in vivo. To be noted: for Fasting Blood Glucose Value, 0 day: 0 day (baseline). The text has this: Male mice were allowed to adapt to new environment for 1 week before treatment. The mice were divided into several groups (n=6-8/group). The individual was screened and divided into groups based on body weight and fasting blood glucose. Grouping was done by screening in a balanced manner, so as to exclude individuals that were too large or too small. A blank buffer or a test compound was subcutaneously administrated to the animals once a day. The individuals in the body weight group were weighted daily before administration, while the individuals in the fasting blood glucose group (fasting for 4 hours) were measured for their blood glucose 7 days after administration.

Data set [5] can be described thus: Body weight of DIO mice after 28 days of administration (Example 10). The settings on record: 2 nmol/kg s.c. QD. Format: in vivo, DIO male mice. The method, then: Eight or more C57BL/6J male mice at an age of 16 to 18 weeks and fifty-six or more DIO male mice with obesity induced by high-fat feed at an age of 16 to 18 weeks were selected. After entering the animal facility, all mice were adaptively fed for 3 days or more. They were required to adapt for 3 days before grouping. All mice were measured for body weight, body fat ratio and fasting blood glucose. Fifty-six DIO mice were randomly grouped primarily based on body weight and fasting blood glucose and secondarily based on body fat ratio. 8 C57BL/6J mice of close weekly age were assigned into the healthy control group. Each mouse in all groups was housed in a separate cage for 2-3 days to adapt to environment before grouping. During the period, the mice were adaptively caught and administrated with blank solvent daily. The day of grouping was Day 0, and the administration was continued for 28 days. […]
The body weight of each mouse was recorded every day according to the frequency of administration. Postprandial blood glucose was measured every 3 days, fasting blood glucose was measured every 7 days, and IPGTT (Intraperitoneal Glucose Tolerance Tests) was conducted once before the end point. […]

Data set [6] can be described thus: Body weight of DIO mice, 25 days, different administration ratios (Example 11). Format: in vivo. The settings on record: 30 nmol/kg s.c. QD, Day 25.
Excerpt: as §1
(§2) The animals were weighed before grouping (i.e. before the first administration) and every 3 days after grouping. At the end of the experiment (Day 25), the mice were fasted for 4 hours. The livers of all mice in Groups G1-G8 were collected and weighed. About 20 mg of the livers were homogenized. The homogenate was taken to measure total cholesterol (TC) and […] (TG).

Data set [7] is described as follows: Liver total cholesterol (TC) and triglyceride (TG) in DIO mice (Example 11). It counts as in vivo. To be noted: 30 nmol/kg s.c. QD, Day 25, fasted 4 hours.
Excerpt: as §1, §2

Data set [8] can be described thus: Body weight of DIO mice, high dosage, 21 days (Example 12). It counts as in vivo. To be noted: 30 nmol/kg s.c. QD. The text has this: 72 diet-induced obese (DIO) mice were weighed. (Screening and Grouping) When the average weight of the mice is about 40-45 g, they are randomly assigned to Groups G2-G11 based on the body weights of the mice, with 8 mice in each group. Eight C57BL/6 mice fed with normal diet were assigned to Group G1. Each mouse in all groups was housed in a separate cage for 2-3 days to adapt to environment before grouping. During this period, the mice were adaptively caught and administrated with blank solvent (propylene glycol: 14.0 mg/mL and disodium hydrogen phosphate: 1.132 mg/mL, pH 7.4) daily. The day of grouping was Day 0.

The target in data set [9] is human GLP-1 receptor (human, UniProt P43220 24-463). Put plainly: cell-based or functional assay.
For data set [10], the target named is human GIP receptor (glucose-dependent insulinotropic peptide receptor, GIPR) (human) (UniProt P48546). Put plainly: cell-based or functional assay.
Setting [11] is: 2.4 nmol/kg s.c. once a day, 7 days.
[12] abbreviates: 14.4 nmol/kg s.c. once a day, 7 days.

hGLP-1R, sequence (P43220 24-463): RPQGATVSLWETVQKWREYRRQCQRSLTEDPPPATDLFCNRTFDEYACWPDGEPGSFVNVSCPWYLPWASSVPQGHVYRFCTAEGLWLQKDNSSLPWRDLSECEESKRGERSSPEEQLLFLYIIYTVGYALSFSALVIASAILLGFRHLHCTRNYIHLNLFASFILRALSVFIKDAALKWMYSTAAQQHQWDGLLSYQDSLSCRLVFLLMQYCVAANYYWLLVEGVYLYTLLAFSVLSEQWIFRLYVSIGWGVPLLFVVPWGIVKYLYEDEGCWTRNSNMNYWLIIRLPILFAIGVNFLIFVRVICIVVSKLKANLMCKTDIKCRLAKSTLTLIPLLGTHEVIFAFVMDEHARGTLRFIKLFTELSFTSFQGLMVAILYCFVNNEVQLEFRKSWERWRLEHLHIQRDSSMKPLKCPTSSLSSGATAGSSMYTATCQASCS
human GLP-1 receptor, sequence (P43220 24-463): as above

One may read the EC50 as the concentration that produces a half-maximal response. With `CC[C@H](C)[C@H](NC(=O)[C@H](CO)NC(=O)[C@H](Cc1ccc(O)cc1)NC(=O)[C@H](CC(=O)O)NC(=O)[C@H](CO)NC(=O)[C@@H](NC(=O)[C@H](Cc1ccccc1)NC(=O)[C@@H](NC(=O)CNC(=O)[C@H](CCC(=O)O)NC(=O)C(C)(C)NC(=O)[C@@H](N)Cc1ccc(O)cc1)[C@@H](C)O)[C@@H](C)CC)C(=O)N[C@@H](C)C(=O)N[C@@H](CC(C)C)C(=O)N[C@@H](CC(=O)O)C(=O)N[C@@H](CCCNC(=N)N)C(=O)N[C@H](C(=O)N[C@@H](Cc1c[nH]cn1)C(=O)N[C@@H](CCC(N)=O)C(=O)N[C@@H](CCC(N)=O)C(=O)N[C@@H](CC(=O)O)C(=O)N[C@@H](Cc1ccccc1)C(=O)N[C@H](C(=O)N[C@@H](CC(N)=O)C(=O)N[C@@H](Cc1c[nH]c2ccccc12)C(=O)N[C@@H](CC(C)C)C(=O)N[C@@H](CC(C)C)C(=O)N[C@@H](C)C(=O)N[C@@H](CCC(N)=O)C(=O)N[C@@H](CCCCNC(=O)COCCOCCNC(=O)COCCOCCNC(=O)CC[C@@H](NC(=O)CCCCCCCCCCCCCCCCC(=O)O)C(=O)O)C(=O)NCC(=O)O)C(C)C)[C@@H](C)CC` [Peptide 14, N-{ε-30}-18-{[(23R)-23-carboxyl-2,11,20-trioxo-10,19-diaza-4,7,13,16-tetraoxatricosyl-23-yl]amino}-18-oxooctadecanoic acid acetyl-[Aib2, L14, R16]-hGIP(1-31)] (H-Y[Aib]EGTFISDYSIALDRIHQQDFVNWLLAQK([AEEA-AEEA-d(γGlu)-C18 diacid])G-OH), the EC50 in [1] is 3.5 pM; in [2], more than 100 pM.
For `CC[C@H](C)[C@H](NC(=O)[C@H](CC(C)C)NC(=O)[C@H](Cc1c[nH]c2ccccc12)NC(=O)[C@H](CCC(N)=O)NC(=O)[C@@H](NC(=O)[C@H](Cc1ccccc1)NC(=O)[C@H](C)NC(=O)[C@H](CCCCNC(=O)COCCOCCNC(=O)COCCOCCNC(=O)CC[C@H](NC(=O)CCCCCCCCCCCCCCCCCCC(=O)O)C(=O)O)NC(=O)[C@H](CCC(N)=O)NC(=O)[C@H](C)NC(=O)[C@@H](NC(=O)[C@H](CCCCN)NC(=O)[C@H](CC(=O)O)NC(=O)[C@H](CC(C)C)NC(=O)C(C)(C)NC(=O)[C@@H](NC(=O)[C@H](CO)NC(=O)[C@H](Cc1ccc(O)cc1)NC(=O)[C@H](CC(=O)O)NC(=O)[C@H](CO)NC(=O)[C@@H](NC(=O)[C@H](Cc1ccccc1)NC(=O)[C@@H](NC(=O)CNC(=O)[C@H](CCC(=O)O)NC(=O)C(C)(C)NC(=O)[C@@H](N)Cc1ccc(O)cc1)[C@@H](C)O)[C@@H](C)O)[C@@H](C)CC)[C@@H](C)CC)C(C)C)C(=O)N[C@@H](C)C(=O)NCC(=O)NCC(=O)N1CCC[C@H]1C(=O)N[C@@H](CO)C(=O)N[C@@H](CO)C(=O)NCC(=O)N[C@@H](C)C(=O)N1CCC[C@H]1C(=O)N1CCC[C@H]1C(=O)N1CCC[C@H]1C(=O)N[C@@H](CO)C(N)=O` [Tirzepatide], in [3], the “water intake / adverse responses” value is listed as “significantly inhibited”.
In the case of “N^6,26-{18-[N-(17-carboxylheptadecanoyl)-L-γ-glutamyl]-10-oxo-3,6,12,15-tetraoxa-9,18-diazaoctadecanoyl}-[8-(2-amino-2-propionic acid), 34-L-arginine] human glucagon-like peptide 1 (7-37) [GLP-1 Analog]”, the results for the “Fasting Blood Glucose Value, 0 day” value in [4] (2.4 nmol/kg s.c. once a day) and in data set [4] (14.4 nmol/kg s.c. once a day) were 27.17 ± 2.01 mmol/L and 26.96 ± 1.60 mmol/L, respectively. For the same compound, the “Decrease of Blood Glucose, 7 days” value in [4] (setting [11]) is 27.10 ± 13.55%; in data set [4] (setting [12]) it was 49.30 ± 17.03%. The “Fasting Blood Glucose Value, 7 days” value in [4] (setting [11]) amounted to 19.82 ± 3.79 mmol/L; in [4] (setting [12]), 13.66 ± 4.94 mmol/L. In addition, the “blood glucose values, single drug treatment” value in [4] (2.4 and 14.4 nmol/kg, 7 days) is listed as “decrease in blood glucose values”. Moreover, the Weight in data set [5] is 40.2 ± 1.5 g. Further, the “Weight Change” value in [5] is reported as −3.2%. The “Body Weight” value is 31.1 ± 0.7 g in data set [6], 31.1 ± 0.7 g in [6] (listed as GLP-1 Analogs) and 33.1 ± 0.7 g in data set [8] (Day 21). Also, the TC in data set [7] was determined as 4.89 ± 0.12 mM. This compound returned a TG in data set [7] of 0.91 ± 0.03 mM. For the same compound, in data set [8], the “Body Weight Reduction Percentage at Day 21” value is reported as 24.7 ± 1.3 %.
In the case of “hGLP-1 (7-37) (from UniProt P01275 21-180) (ligand)”, the EC50(pM), cell agonistic activity in data set [9] turned out to be 7.01 pM. The compound also returned an EC50(pM), cell agonistic activity (cAMP, HTRF) in [10] of more than 100 pM.
